Measured values: patent US20250003959A1, “CELL ANALYSIS METHODS, COMPOSITIONS, AND USES” (Institute for Systems Biology, priority 2021, published 2025)

Experiments:
U87VIII single cells = assay: Single-cell barcode chip (SCBC) FA-N3 uptake measurement; type: cell-based, human
Description: For SCBC measurements, the as-prepared single cells were resuspended in warm FBS-free media supplemented with 10 mM FA-N3 at 2 M cells/mL. After being incubated at 37° C. for 30 min and washed with FBS-free media 3 times, the collected cell pellet was resuspended in serum-free, biotin-free media. The concentration of the as-prepared single-cell suspension was 2 M cells/mL.
The SCBCs were fabricated according to well-established procedures (Xue et al (2015) J Am Chem Soc 137 (12): 4066-4069). DNA-encoded antibody library (DEAL) was grafted onto the surface through DNA hybridization to enable capture antibody arrays. The FA surface probe was also incorporated onto the surface barcode through the same procedure.
The SCBC devices were operated following previously established protocols (Xue et al (2015) J Am Chem Soc 137 (12): 4066-4069)). Briefly, FA-N3 detection was achieved by a surface-based competitive FRET assay, and protein detection was carried out by a sandwich immunofluorescence assay. The cells were loaded in the SCBC with FA-N3 first. Then each cell was isolated and lysed on each chamber. Upon cell lysing, FA-N3 and other analytes were released from the cell and captured on the surface. Subsequently, the detection cocktail containing BHQ2-N3 and antibodies were added to the chamber, and the fluorescence readout was recorded.
The dendrimer-ssDNA conjugate can be mixed with a cocktail of antibody-ssDNA conjugates to enable multiplex quantitation. As a proof of concept, we quantified the azidopentanoic acid uptake, critical signaling protein levels, and cell proliferation marker (Ki67) in U87VIII single cells. […] We further investigated if the FA-N3 uptake was dictated by the cell volume.

U87VIII cells [1] = system: U87VIII cells
Description: (§1) A 96-well plate was seeded with U87 cells (10,000/well), and the cells were allowed to grow overnight. Then the FA-N3 solution was added (100 μL per well, various concentrations) to the cells and incubated for 24 hours. After the incubation, the cell media was removed, and a resazurin solution (10 g/mL, in cell media) was added to the plate and incubated for 2 hours. The fluorescence was read by a plate reader (Biotek, 540 nm excitation/590 nm emission).

U87VIII cells [2] = assay: FA-N3 tolerance experiment (resazurin viability); settings: FIG. 3E
Description: as §1

U87VIII cells [3] = assay: FA-N3 uptake experiment at the bulk level, dendrimer/BHQ2-N3 surface detection; type: cell-based, human
Description: The 3rd or 4th generation dendrimer was immobilized on the glass slide surface (described above). To generate a working curve of FA-N3, 45 μL of FA-N3 (various concentrations in 1×PBST) was added to each well. The slide was incubated at 37° C. for 2 hours, allowing FA-N3 to react with the DBCO groups on the dendrimer. The FA-N3 solution was then removed, and each well was washed with 1×PBST three times. 45 μL of BHQ2-N3 solution (25 μM in 1×PBST) was added to each well, and the slide/PDMS device was incubated at 37° C. for 1 hour, allowing BHQ2-N3 to react with unoccupied DBCO sites. After removing the BHQ2-N3 solution, and the device was washed with 1×PBST three times. The PDMS slab was then removed, and the slide was washed with 1×PBS, 50% 1×PBS/water, and water. The slide was then air-dried, and the fluorescence intensities were obtained using a Genepix microarray scanner. Experiments were run in quadruplets to get the error bar.
The U87 cells were collected via centrifugation at 500 g for 5 min. The media was removed, and the cells were resuspended in FBS-free DMEM, resulting in a 4 M cells/mL suspension. 250 μL of the cell suspension was dispensed into Eppendorf tubes, and mixed with 250 μL of the FA-N3 solution (various concentrations, in FBS free DMEM). After 30 min incubation in the cell incubator, the cells were centrifuged at 500 g for 5 min and the resulting pellet was washed 3 times to remove any excess FA-N3. Then, 100 μL cell lysis buffer was added to each tube, and kept on ice for 15 min. The tubes were then sonicated and vortexed for 5 min. Finally, the tubes were centrifuged at maximum speed for 10 min. The supernatant was collected and subjected to surface-based FA-N3 detection.
Because of their hydrophobic tails, fatty acids may insert into the cell membrane. This partition is not an active transportation process and may confound the analysis. On the other hand, it was expected that the inserted probe molecules would remain in the membrane fragments upon cell lysis and not be detected by the assay. To assess this potential interference, we incubated the cells with the FA-N3 probe at 4° C. and used our platform to quantify the FA-N3 in the cells. At such a low temperature, the cells would stop the active transportation of the probe, and any observed signal would originate from the nonspecific insertion into the cell membrane. […] To rule out the possibility that the low-temperature treatment dampened the rate of the nonspecific insertion, we performed another experiment where we fixed the cells and then incubated them with the FA-N3 probe at 37° C. Again, the resulted signal was negligible (FIG. 3G).

Substance: azidopentanoic acid [FA-N3]
- intracellular FA-N3 concentration (U87VIII single cells): high μM to low mM
- fatty acid concentrations in the chambers (U87VIII single cells; calculated from the standard curve): high nM to low μM
- FA-N3 amount taken up by each cell (U87VIII single cells; chamber volume 2 nL): low fmol-level
- tolerance of the probe by the cells (U87VIII cells [1]): well-tolerated
- concentration well tolerated by cells (U87VIII cells [2]): up to 20 mM
- uptake signal after incubation at 4° C. (U87VIII cells [3]; U87VIII cells incubated with the probe at 4° C., vs control): indistinguishable from the control
- FA-N3 concentration above which uptake signal leveled off (U87VIII cells [3]; U87VIII cells, bulk level): above 10 mM
- cellular uptake of FA-N3 probe (U87VIII cells [3]; U87VIII cells, bulk level, 30 min incubation, varying FA-N3 concentrations): concentration-dependent manner
- uptake signal in fixed cells (U87VIII cells [3]; fixed U87VIII cells incubated with the probe at 37° C.): negligible
